Results: patent US7749698B2, “p53 wild-type as biomarker for the treatment with mTOR inhibitors in combination with a cytotoxic agent” (Novartis AG, priority 2004, dated 2010)

Experiments:
[1] = system: p53 (TP53) wild-type human adenocarcinoma A549 (CCL-185) tumor cells; assay: YO-PRO cell death/cytotoxicity assay, gemcitabine combination; format: cell-based; settings: 20 nM with gemcitabine 5 to 17.5 nM, 72 hours, p<0.05, ANOVA with Tukey test
Experimental: (§1) p53 (TP53) wild-type human adenocarcinoma A549 (CCL-185) tumor cells (American Type Culture Collection, Rockville, Md., USA) are seeded at a density of 2×10^3 cells/100 μl per well in 96-well plates and incubated for 24 hours at 37° C. and 5% CO2. Cells are incubated with suboptimal concentrations of gemcitabine (e.g. 5 to 17.5 nM) either in combination with 20 nM 40-O-(2-hydroxyethyl) rapamycin or with the vehicle-control DMSO for an additional 72 hours. YO-PRO dye (YO-PRO^R-1 iodide [491/509], cat #Y3603, Molecular Probes) is added to the cells and a Cytofluor II Fluorescence plate reader is used to determine cell death or cytotoxicity and, after cell lysis, the relative cell proliferation.

A549 cells [2] = assay: PARP cleavage immunoblot, gemcitabine combination; format: cell-based, human; settings: 20 nM with gemcitabine 5 to 12.5 nM, 72 hours, compared to gemcitabine or the mTOR inhibitor alone
Experimental: A549 cells are seeded at a density of 0.1×10^6 cells/10 ml per 10 cm plates and incubated for 24 hours at 37° C. and 5% CO2. Cells are incubated with suboptimal concentrations of gemcitabine (e.g. 5 to 12.5 nM) either in combination with 20 nM 40-O-(2-hydroxyethyl) rapamycin or with the vehicle-control DMSO for an additional 72 hours. Cell extracts corresponding to 50 μg total protein are resolved by 8% SDS-PAGE electrophoresis and immunoblot analysis is performed using rabbit polyclonal antibodies raised against Poly (ADP-Ribose) Polymerase (PARP) (Cell Signalling Technology catalogue #9542). […] This confirms the above results that, in the p53 (TP53) wild-type A549 cells, the presence of the mTOR inhibitor results in higher levels of cell death at suboptimal gemcitabine concentrations.

[3] = system: p53 (TP53) wild-type human lung adenocarcinoma A549 cells; assay: YO-PRO cell death/cytotoxicity assay, cisplatin combination; format: cell-based
Experimental: (§2) p53 (TP53) wild-type human lung adenocarcinoma A549 cells are seeded at a density of 5×10^3 cells/100 μl per well in 96-well plates and incubated for 24 hours at 37° C. and 5% CO2. Cells are incubated with suboptimal concentrations of cisplatin (e.g. 3 to 10 μg/ml) either in combination with 20 nM 40-O-(2-hydroxyethyl) rapamycin or with the vehicle-control DMSO for an additional 24 hours. The YO-PRO® assay is performed as above to determine cell death or cytotoxicity and, after cell lysis, the relative cell proliferation. […] In the latter case, incubation with compounds is for 30 hours.

[4] = system: p53 (TP53) wild-type MCF7 cells; assay: p21 and Bax immunoblot, cisplatin with or without mTOR inhibitor; format: cell-based, human; settings: for Bax protein expression: either agent alone or in combination
Experimental: (§3) p53 (TP53) wild-type A549 and MCF7 cells are seeded at a density of 0.3×10^6 and 0.4×10^6 cells/4 ml per 6 cm plates, respectively, and incubated for 24 hours at 37° C. and 5% CO2. Cells are incubated with suboptimal concentrations of cisplatin (e.g. 0.5 to 4 μg/ml) either in combination with 20 nM 40-O-(2-hydroxyethyl) rapamycin or with the vehicle-control DMSO for an additional 24 hours and 30 hours, respectively. Cell extracts corresponding to 30 μg total protein are resolved on 15% SDS-PAGE electrophoresis and immunoblot analysis is performed using mouse monoclonal antibodies raised against p21 (Oncogene Research Products, Clone EA10, catalogue #OP64). […] Strikingly, the presence of the mTOR inhibitor, e.g. 40-O-(2-hydroxyethyl) rapamycin, attenuates cisplatin-induced upregulation of p21 protein expression. In contrast, Bax protein expression, a p53-regulated pro-apoptotic protein, is unaffected by either agent alone or in combination. In this assay cytotoxic-induced p21 protein expression is inhibited by the presence of the mTOR inhibitor. This provides an explanation for the enhanced cell killing/apoptotic response observed with cisplatin and mTOR inhibitor combinations.

[5] = system: p53 (TP53) wild-type A549 cells; assay: as above; format: cell-based, human; settings: for Bax protein expression: either agent alone or in combination
Experimental: as §3

A549 cells [6] = assay: PARP cleavage immunoblot, cisplatin combination; format: cell-based, human; settings: 20 nM with cisplatin 0.5 to 4 μg/ml, 24 hours, compared to cisplatin or the mTOR inhibitor alone
Experimental: A549 cells are seeded at a density of 0.1×10^6 cells/10 ml per 10 cm plates and incubated for 24 hours at 37° C. and 5% CO2. Cells are incubated with suboptimal concentrations of cisplatin (e.g. 0.5 to 4 μg/ml) either in combination with 20 nM 40-O-(2-hydroxyethyl) rapamycin or with the vehicle-control DMSO for an additional 24 hours. Cell extracts corresponding to 50 μg total protein are resolved on 8% SDS-PAGE electrophoresis and immunoblot analysis is performed using rabbit polyclonal antibodies raised against Poly (ADP-Ribose) Polymerase (PARP) and p53. […] This confirms the above results that, in the p53 (TP53) wild-type A549 cells, the presence of the mTOR inhibitor results in higher levels of cell death at suboptimal cisplatin concentrations.

PC3M = assay: YO-PRO cell death/cytotoxicity assay, cisplatin combination; format: cell-based, human; settings: p53 mutated/deficient, 20 nM with cisplatin, 30 hours
Experimental: as §2
(§4) This procedure is repeated however with the use of p53 (TP53) mutated/deficient tumor cell lines, e.g. PC3M (seeded at a density of 3×10^3 cells/100 μl) or DU145 (seeded at a density of 5×10^3 cells/100 μl:HTB-81; American Type Culture Collection). The incubation with compounds in this case is 22 hours for DU145 or 30 hours for PC3M.

DU145 = assay: as above; format: cell-based; settings: DU145, p53 mutated/deficient; 20 nM with cisplatin, 22 hours
Experimental: as §2, §4

[7] = system: MDA-MB231 human breast carcinoma cells; assay: YO-PRO cell death/cytotoxicity assay, gemcitabine combination; format: cell-based; settings: MDA-MB231, p53 mutated/deficient; 20 nM with gemcitabine
Experimental: as §1
(§5) This procedure is repeated however with the use of p53 (TP53) mutated/deficient tumor cell lines, e.g. PC3M human prostate carcinoma cells (seeded at a density of 0.8×10^3 cells/100 μl) or MDA-MB231 human breast carcinoma cells (seeded at a density of 2×10^3 cells/100 μl; HTB-26; American Type Culture Collection).

[8] = system: PC3M human prostate carcinoma cells; assay: as above; format: cell-based; settings: p53 mutated/deficient, 20 nM with gemcitabine
Experimental: as §1, §5

[9] = system: p53 (TP53) wild-type A549 cells; assay: p21 siRNA transfection, cisplatin treatment, p21/PARP immunoblot; format: cell-based, human; settings: A549 untransfected or LacZ siRNA control transfected; cisplatin 1 to 2 μg/ml, 24 hours
Experimental: p53 (TP53) wild-type A549 cells are seeded at a density of 0.1×10^6 cells/5 ml per 6 cm plates and incubated for 24 hours at 37° C. and 5% CO2. Cells are left untransfected or transiently transfected with 100 nM siRNA targeting either p21 (Accession number: NM000389; target sequence: 5′-GTG GAC AGC GAG CAG CTG A-3′) or LacZ (as above) control siRNA, using Oligofectamine (Invitrogen, Cat # 12252-011). After 30 hours incubation, cells are incubated with suboptimal concentrations of cisplatin (e.g. 1 to 2 μg/ml) for an additional 24 hours. Cell extracts corresponding to 30 μg (p21) and 50 μg (PARP) total protein are resolved on 15 and 10% SDS-PAGE electrophoresis, respectively, and immunoblot analysis is performed using mouse monoclonal and rabbit polyclonal antibodies raised against p21 and PARP, respectively.

[10] = system: p53 (TP53) wild-type A549 cells; assay: p53 siRNA transfection, cisplatin treatment, p53/p21/PARP immunoblot; format: cell-based, human; settings: A549 untransfected or LacZ siRNA control transfected
Experimental: p53 (TP53) wild-type A549 cells are seeded at a density of 0.1×10^6 cells/5 ml per 6 cm plates and incubated for 24 hours at 37° C. and 5% CO2. Cells are left untransfected or transiently transfected with 100 nM siRNA targeting either human p53 (Accession number: NM000546; target sequence: 5′-GCA TCT TAT CCG AGT GGA A-3′) or LacZ (Accession number: M55068; target sequence: 5′-GCGGCTGCCGGAATTTACCTT-3′) control siRNA, using Oligofectamine (Invitrogen, Cat # 12252-011). After 30 hours incubation, cells are incubated with increasing concentrations of cisplatin (e.g. 0.5 to 6 μg/ml) for an additional 24 hours. Cell extracts corresponding to 30 μg (p21) and 50 μg (p53 and PARP) total protein are resolved on 15% (p21) and 10% (p53 and PARP) SDS-PAGE electrophoresis, and immunoblot analysis is performed using mouse monoclonal and rabbit polyclonal antibodies raised against p21 and p53/PARP, respectively. […] The same effects on p53 expression, p21 expression and PARP cleavage are also observed with two other siRNA's targeting human p53 (target sequences: 5′-GGA AGA CTC CAG TGG TAA T-3′ and 5′-GAT ATT GAA CAA TGG TTC A-3′).

[11] = cisplatin 0.5 to 6 μg/ml, 24 hours

SMILES	potentiation of the cell killing effect of suboptimal concentrations of gemcitabine [1]	PARP cleavage (a marker of apoptosis) at suboptimal gemcitabine concentrations (A549 cells [2])	potentiation of the cell killing effect of suboptimal concentrations of cisplatin ([3]; 20 nM with cisplatin 3 to 10 μg/ml, 24 hours, p<0.05, ANOVA with Tukey test)	interaction between RAD001 and cisplatin (two-way ANOVA) ([3]; p<0.001)	cisplatin-induced upregulation of p21 protein expression ([4]; 20 nM with cisplatin 0.5 to 4 μg/ml, 30 hours)	Bax protein expression [4]	cisplatin-induced upregulation of p21 protein expression ([5]; 20 nM with cisplatin 0.5 to 4 μg/ml, 24 hours)	Bax protein expression [5]	PARP cleavage (a marker of apoptosis) at suboptimal cisplatin concentrations (A549 cells [6])	potentiation of cell death (PC3M)	potentiation of cell death (DU145)	potentiation of cell death [7]	potentiation of cell death [8]	PARP cleavage (a marker of apoptosis) [9]	p21 protein expression [9]	PARP cleavage (a marker of apoptosis) ([10]; at higher cisplatin concentrations (2 to 6 μg/ml))	p21 protein expression [10, 11]	p53 protein expression [10, 11]	p21 protein expression ([4]; cisplatin alone 0.5 to 4 μg/ml, 30 hours)	p21 protein expression ([5]; cisplatin alone 0.5 to 4 μg/ml, 24 hours)
CO[C@H]1C[C@@H]2CC[C@@H](C)[C@@](O)(O2)C(=O)C(=O)N2CCCC[C@H]2C(=O)O[C@H]([C@H](C)C[C@@H]2CC[C@@H](OCCO)[C@H](OC)C2)CC(=O)[C@H](C)/C=C(\C)[C@@H](O)[C@@H](OC)C(=O)[C@H](C)C[C@H](C)/C=C/C=C/C=C/1C [40-O-(2-hydroxyethyl) rapamycin]	statistically significant potentiation	increased PARP cleavage	statistically significant potentiation	highly significant	attenuates	unaffected	attenuates	unaffected	increased PARP cleavage	No striking or consistent potentiation	No striking or consistent potentiation	No striking or consistent potentiation	No striking or consistent potentiation	–	–	–	–	–	–	–
N.N.[Cl][Pt][Cl] [cisplatin]	–	–	–	–	–	unaffected	–	unaffected	–	–	–	–	–	little evidence of PARP cleavage	induces p21 protein expression in a concentration-dependent manner	evidence of PARP cleavage	induces p53 and p21 protein expression in a concentration-dependent manner	induces p53 and p21 protein expression in a concentration-dependent manner	induces increased p21 protein expression in a concentration-dependent manner	induces increased p21 protein expression in a concentration-dependent manner
